Assay results as given in patent US10633395B2, “Aryloxazolidinone antibiotic compounds” (Idorsia Pharmaceuticals Ltd., priority 2017, dated 2020).
Values after ≈ are worked out from the molar mass of the structure shown.

What was measured:
[1] = test system: P. aeruginosa ATCC27853; test: Bacterial growth minimal inhibitory concentration (microdilution), P. aeruginosa ATCC27853; type: cell-based; details: Pseudomonas aeruginosa, quinolone-sensitive strain, cation-adjusted Mueller-Hinton Broth, read-out: MIC for P. aeruginosa AT0027853
Protocol: (§1) Bacterial growth minimal inhibitory concentrations: Minimal inhibitory concentrations (MICs; mg/L) were determined in cation-adjusted Mueller-Hinton Broth by a microdilution method following the description given in “Methods for Dilution Antimicrobial Susceptibility Tests for Bacteria that Grow Aerobically”, Approved standard, 7th ed., Clinical and Laboratory Standards Institute (CLSI) Document M7-A7, Wayne, Pa., USA (2006).
(§2) The compound of Example 1 according to the present invention (inv.) and reference compounds 4 (ref.) to 9 (ref.) were tested against several Gram-positive and Gram-negative bacteria. Staphylococcus aureus A798 is a multiply resistant strain (in particular quinolone-resistant), Klebsiella pneumoniae A-651 is a multiply resistant strain (in particular quinolone-resistant), while E. coli ATCC25922 and P. aeruginosa ATCC27853 are quinolone-sensitive strains. The corresponding antibacterial test results are given in Table 1 hereafter (MICs in mg/L).

[2] = test system: Klebsiella pneumoniae A-651; test: Bacterial growth minimal inhibitory concentration (microdilution), K. pneumoniae A-651; type: cell-based; details: A651, multiply resistant (quinolone-resistant) strain, cation-adjusted Mueller-Hinton Broth
Protocol: as §1, §2

[3] = Metabolic stability: intrinsic clearance in human liver microsomes; type: in vitro ADME; details: 1 μM compound, up to 45 minutes
Protocol: Metabolic stability: Subcellular liver fractions and primary hepatocytes from different species were used to determine the in vitro intrinsic clearance of a compound in various species. The liver microsomal and hepatocytes in vitro half-life approach can be a suitable approach to measure intrinsic clearance in vitro, which can be scaled up to the in vivo situation and used in the prediction of human clearance (Obach et al., 1997). For this approach, […] were incubated for up to 45 minutes in subcellular liver fractions or 2 h in primary hepatocytes at final compound concentration of 1 μM. Disappearance of parent compound was determined by LC-MS analysis and intrinsic clearance calculated from the slope of compound disappearance thereof.
Metabolic stability of the compounds according to the present invention (inv.) and reference compounds (ref.) in human liver microsomes and inhibition of the human cytochrome P450 (CYP450) isoforms 3A4, 2C9 and 2D6 are given in Table 4 hereafter.

[4] = test system: CHO cells; test: Genetic toxicology: in vitro micronuclei formation in CHO cells; type: cell-based, Chinese hamster; details: 24 h treatment, ratio versus untreated cells
Protocol: Genetic toxicology testing of compounds to assess their ability to cause DNA damage was done in vitro in mammalian cell assays (CHO cells). The formation of micronuclei, small DNA-staining particles outside of the nucleus, was investigated in mononucleated and binucleated cells treated with increasing concentrations of a test compound for 24 h. DNA was stained with Hoechst 33342 (Mutat Res. 630:1-13, 2007), read with a high-content screening microscope (Opera Phenix, Perkin Elmer) and scored with an optimized algorithm using Harmony. Micronucleii associated with valid cells were enumerated and induction of micronuclei formation tabulated as ratio versus untreated cells if the fraction of valid cells was ≥0.2.
Genetic toxicity potential of the compound of Example 1 according to the present invention (inv.) and reference compounds (ref.) was assessed and the corresponding test results are given in Table 3 hereafter.

[5] = test system: E. coli ATCC25922; test: Bacterial growth minimal inhibitory concentration (microdilution), E. coli ATCC25922; type: cell-based; details: Escherichia coli, quinolone-sensitive strain, cation-adjusted Mueller-Hinton Broth
Protocol: as §1, §2

[6] = test system: Staphylococcus aureus A798; test: Bacterial growth minimal inhibitory concentration (microdilution), S. aureus A798; type: cell-based; details: multiply resistant (quinolone-resistant) strain, cation-adjusted Mueller-Hinton Broth
Protocol: as §1, §2

[7] = test system: CYP3A4, CYP2C9 and CYP2D6 (lowest IC50 of the isoforms measured); test: Cytochrome P450 inhibition in human liver microsomes; type: in vitro ADME; details: lowest of isoforms 3A4, 2C9 and 2D6, 0-100 μM test compound, read-out: CYP450 lowest IC50 of the isoenzymes measured
Protocol: Cytochrome P450 inhibition: The objective of this in vitro assay was to assess potential inhibition of the human cytochrome P450 (CYP450) isoforms 3A4, 2C9 and 2D6 using human liver microsomes and isoform-specific marker reactions. […] This may affect plasma levels in vivo and potentially lead to adverse drug reactions or toxicity. Technically, specific marker-substrate of P450 enzymes were incubated with human liver microsomes in the presence/absence of a test compounds. The inhibition effect of the test compound towards the marker reaction was determined in incubations containing 0-100 μM of the test compound. The inhibitory effect was determined by the impact of the different compound concentrations towards the metabolite formation of the marker reaction. Formation of the metabolites was determined by LC-MS analysis. Metabolic stability of the compounds according to the present invention (inv.) and reference compounds (ref.) in human liver microsomes and inhibition of the human cytochrome P450 (CYP450) isoforms 3A4, 2C9 and 2D6 are given in Table 4 hereafter.

[8] = test system: wild-type E. coli A-1261; test: MIC against wild-type E. coli A-1261 with or without alkaline phosphatase or esterase (prodrug activation); type: cell-based; details: for MIC for E. coli A-1261 In the presence of an alkaline phosphatase (2 i.U./mL): alkaline phosphatase from bovine intestinal mucosa; for MIC for E. coli A-1261 In the presence of an esterase (10 i.U./mL): esterase from porcine liver; for MIC for E. coli A-1261 In the absence of alkaline phosphatase and esterase: no alkaline phosphatase, no esterase
Protocol: as §1
The compounds of Examples 2 and 3 of the present invention (inv.) were tested against wild-type E. coli A-1261 in the presence of alkaline phosphatase (from bovine intestinal mucosa: Sigma P6774-2KU; Lot: SLBB1168) or esterase (from porcine liver: Sigma E2884-5KU; Lot: 129K7010V), and in the absence of an alkaline phosphatase and esterase. The corresponding antibacterial test results are given in Table 2 hereafter (MICs in mg/L).

Row | Compound | MIC [1] [µg/mL] | MIC [2] [µg/mL] | Intrinsic clearance in human liver microsomes [3] | Maximal induction of micronuclei formation normalized vs. background [4] | MIC [5] [µg/mL] | MIC [6] [µg/mL] | IC50 [7] [µM] | MIC for E. coli A-1261 In the presence of an alkaline phosphatase (2 i.U./mL) [8] [µg/mL] | MIC for E. coli A-1261 In the presence of an esterase (10 i.U./mL) [8] [µg/mL] | MIC for E. coli A-1261 In the absence of alkaline phosphatase and esterase [8] [µg/mL]
1 | O=C1COc2ccc(N3C[C@H](CCCN[C@@H]4Cn5c(=O)ccc6cccc4c65)OC3=O)nc2N1 [Example 1, (S)-1-{3-[(S)-2-oxo-3-(3-oxo-3,4-dihydro-2H-pyrido[3,2-b][1,4]oxazin-6-yl)-oxazolidin-5-yl]-propylamino}-1,2-dihydro-pyrrolo[3,2,1-ij]quinolin-4-one] | 1 (≈ 2.17 µM) | 0.5 (≈ 1.08 µM) | 15 μL/min * mg microsomal protein | 2.5 | 0.25 (≈ 0.542 µM) | 0.031 (≈ 0.0672 µM) | > 50 |  |  | 
2 | O=C1COc2ccc(N3C[C@H](CCCN(C(=O)OCOP(=O)(O)O)[C@@H]4Cn5c(=O)ccc6cccc4c65)OC3=O)nc2N1 [Example 2] |  |  |  |  |  |  |  | 0.25 | >8 | >8
3 | O=C1COc2ccc(N3C[C@H](CCCN(C(=O)OCOC(=O)CCc4ccccc4OP(=O)(O)O)[C@@H]4Cn5c(=O)ccc6cccc4c65)OC3=O)nc2N1 [Example 3] |  |  |  |  |  |  |  | 0.25 | 1 | >8
